{
  "source": "patent US20210052537A1",
  "about": "“COLITIS AMELIORATING AGENT” (ASTA PHARMACEUTICALS, CO., LTD., priority 2018, published 2021)",
  "test_system": "DSS-induced colitis",
  "assay": "DSS-induced colitis mouse model (experimental ulcerative colitis)",
  "assay_type": "in vivo",
  "design": "Colon wet weight: unit not given here",
  "method": "In this Example, mouse models to which dextran sulfate sodium salt (DSS) is used will be described as colitis models. When DSS is administered by being mixed in drinking water of the mouse, an experimental ulcerative colitis model similar to human ulcerative colitis in terms of symptoms such as suppression of body weight increase, blood in stools, and anemia and formation of colon erosion and further lacking intestinal lesion was build (Non-Patent Literature 3). A suppression effect of Compound X on colitis in such a model as the representative colitis model was examined. For the evaluation items, recovery from diarrhea and body weight loss by colitis, and the length and weight of the colon were examined as changes in colon properties, which are widely known to occur by DSS-induced colitis.\nFor treatment, C57BL/6J, male mice were purchased from CHARLES RIVER LABORATORIES JAPAN, INC. in accordance with previous literature (Non-Patent Literature 2) and 5-week old mice with no abnormal general conditions during quarantine and acclimation period were used for the experiment. After acclimation, the animals were divided in such a way as to be 1 mouse per cage. DSS used in the experiment having a molecular weight of from 36,000 to 50,000 Da was purchased from MP Bio Japan. DSS was added to tap water in such a way as to be 3% and suspended for causing colitis. The suspension was prepared once every 3 days and freely provided to each of the mice as water supply. A solution from which DSS was removed was provided as water supply to a non-pathological control group.\nAfter group division, each of the test substances of Table 1 was suspended in a solution of 0.5% sodium carboxymethyl cellulose (hereinafter, CMC, Nacalai Tesque Inc.) in such a way as to be each treatment of Table 1 and orally administered once daily. […] These control groups, Groups 1 and 2, were orally administered, as the test substance, with the 0.5% CMC solution used as the medium.\nDrinking water after the group division was typical water for drinking.\nThe test started with 6 mice in Group No. 1 and 10 mice each in Group Nos. 2 to 6.\nBody weights were measured on the DSS administration starting day (day −5), DSS administration last day (day 0), on day 3, day 5, day 8, and day 10 of test substance administration.\nThe therapeutic effect was evaluated by observing changes in blood in stools caused by enteritis as the body weight recovery alone can be considered that the body weight increase might have been promoted simply by the growth. Mice feces were observed on the DSS administration starting day (day-5), DSS administration last day (day 0), on day 3, day 5, day 8, and day 10 of test substance administration and scored in accordance with the criteria of Table 2.\nFor evaluating the therapeutic effect of Compound X, the length and weight of the colon were measured. The mice were euthanized under anesthesia on day 10 of test substance administration and dissected to remove the colon. The removed colon was quickly measured for a length in a relaxed state. Subsequently, feces in the intestinal tract were removed and sufficiently washed with phosphate buffered saline (Wako Pure Chemical Industries, Ltd.) and measured for a wet weight.",
  "key": {"[1]": {"conditions": "DSS + 1 mg/kg/day oral, day 10, mean ± SD"}, "[2]": {"conditions": "DSS + 10 mg/kg/day oral, day 10, mean ± SD"}, "[3]": {"conditions": "DSS + 100 mg/kg/day oral, day 10, mean ± SD"}},
  "note": "Values joined by “and” are separate entries in the source; they are usually repeats but may differ in a detail not shown here. Identical values can stand only once.",
  "data": [
    {"compound": "CC1=C(/C=C/C(C)=C/C=C/C(C)=C/C=C/C=C(C)/C=C/C=C(C)/C=C/C2=C(C)C(=O)[C@@H](OC(=O)CNC(=O)NCCCC(=O)O)CC2(C)C)C(C)(C)C[C@H](OC(=O)CNC(=O)NCCCC(=O)O)C1=O.NCCCC[C@H](N)C(=O)O.NCCCC[C@H](N)C(=O)O", "note": "[Compound X, 4-(3-{4-[18-(4(S)-[3-(3-Carboxypropyl)ureidoacetoxy]-2,6,6-trimethyl-3-oxocyclohexa-1-enyl)-3,7,12,16-tetramethyloctadeca-1(E),3(E),5(E),7(E),9(E),11(E),13(E),15(E),17(E)-nonaenyl]-3,5,5-trimethyl-2-oxocyclohex-3-enyl-1(S)-oxycarbonylmethyl}ureido)butyric acid dilysine salt]", "values": [
      {"measurement": "Blood feces score versus DSS administration group", "setting": "100 mg/kg/day oral, day 5 of test substance administration, in words", "value": "improved blood feces score"},
      {"measurement": "Body weight recovery compared with the DSS administration only", "setting": "100 mg/kg/day oral, in words", "value": "body weight recovery was even further significant"},
      {"measurement": "Body weight", "setting": "DSS + 1 mg/kg/day oral, day 0 (DSS last day), mean ± SD", "value": "20.3 ± 0.8", "unit": "g"},
      {"measurement": "Fecal scoring average value", "setting": "DSS + 1 mg/kg/day oral, day 0 (DSS last day), score 0-3, mean ± SD", "value": "1.2 ± 0.4"},
      {"measurement": "Fecal scoring average value", "setting": "DSS + 1 mg/kg/day oral, day 3, score 0-3, mean ± SD", "value": "1.7 ± 0.8"},
      {"measurement": "Body weight", "setting": "DSS + 1 mg/kg/day oral, day 3 of administration, mean ± SD", "value": "14.7 ± 1.3", "unit": "g"},
      {"measurement": "Body weight", "setting": "DSS + 1 mg/kg/day oral, day 5, mean ± SD", "value": "15.1 ± 1.5", "unit": "g"},
      {"measurement": "Fecal scoring average value", "setting": "DSS + 1 mg/kg/day oral, day 5, score 0-3, mean ± SD", "value": "1.7 ± 0.6"},
      {"measurement": "Body weight", "setting": "DSS + 1 mg/kg/day oral, day 8, mean ± SD", "value": "18.0 ± 2.4", "unit": "g"},
      {"measurement": "Fecal scoring average value", "setting": "DSS + 1 mg/kg/day oral, day 8, score 0-3, mean ± SD", "value": "0.0 ± 0.0"},
      {"measurement": "Body weight", "setting": "[1]", "value": "19.4 ± 2.2", "unit": "g"},
      {"measurement": "Colon wet weight", "setting": "[1]", "value": "269.0 ± 8.4"},
      {"measurement": "Fecal scoring average value", "setting": "DSS + 1 mg/kg/day oral, day 10, score 0-3, mean ± SD", "value": "0.0 ± 0.0"},
      {"measurement": "Colon length", "setting": "DSS + 1 mg/kg/day oral, day 10 of administration, mean ± SD, 1 mg/kg/day", "value": "6.72 cm and 6.72 ± 0.28 cm"},
      {"measurement": "Body weight", "setting": "DSS + 1 mg/kg/day oral, day −5 (DSS start, before test substance), C57BL/6J mice, mean ± SD", "value": "20.3 ± 0.9", "unit": "g"},
      {"measurement": "Fecal scoring average value", "setting": "DSS + 1 mg/kg/day oral, day −5 (before test substance), score 0-3 per Table 2, mean ± SD", "value": "0.0 ± 0.0"},
      {"measurement": "Body weight", "setting": "DSS + 10 mg/kg/day oral, day 0 (DSS last day), mean ± SD", "value": "18.9 ± 1.1", "unit": "g"},
      {"measurement": "Fecal scoring average value", "setting": "DSS + 10 mg/kg/day oral, day 0 (DSS last day), score 0-3, mean ± SD", "value": "1.2 ± 0.4"},
      {"measurement": "Body weight", "setting": "DSS + 10 mg/kg/day oral, day 3, mean ± SD", "value": "14.9 ± 1.4", "unit": "g"},
      {"measurement": "Fecal scoring average value", "setting": "DSS + 10 mg/kg/day oral, day 3, score 0-3, mean ± SD", "value": "1.3 ± 0.5"},
      {"measurement": "Body weight", "setting": "DSS + 10 mg/kg/day oral, day 5, mean ± SD", "value": "15.9 ± 1.9", "unit": "g"},
      {"measurement": "Fecal scoring average value", "setting": "DSS + 10 mg/kg/day oral, day 5, score 0-3, mean ± SD", "value": "1.7 ± 0.5"},
      {"measurement": "Body weight", "setting": "DSS + 10 mg/kg/day oral, day 8, mean ± SD", "value": "18.5 ± 2.1", "unit": "g"},
      {"measurement": "Fecal scoring average value", "setting": "DSS + 10 mg/kg/day oral, day 8, score 0-3, mean ± SD", "value": "0.0 ± 0.0"},
      {"measurement": "Body weight", "setting": "[2]", "value": "19.8 ± 1.7", "unit": "g"},
      {"measurement": "Colon length", "setting": "[2]", "value": "6.32 ± 0.16", "unit": "cm"},
      {"measurement": "Colon wet weight", "setting": "[2]", "value": "255.0 ± 12.4"},
      {"measurement": "Fecal scoring average value", "setting": "DSS + 10 mg/kg/day oral, day 10, score 0-3, mean ± SD", "value": "0.0 ± 0.0"},
      {"measurement": "Body weight", "setting": "DSS + 10 mg/kg/day oral, day −5 (DSS start, before test substance), mean ± SD", "value": "20.1 ± 0.9", "unit": "g"},
      {"measurement": "Fecal scoring average value", "setting": "DSS + 10 mg/kg/day oral, day −5 (before test substance), score 0-3, mean ± SD", "value": "0.0 ± 0.0"},
      {"measurement": "Body weight", "setting": "DSS + 100 mg/kg/day oral, day 0 (DSS last day), mean ± SD", "value": "19.0 ± 1.0", "unit": "g"},
      {"measurement": "Fecal scoring average value", "setting": "DSS + 100 mg/kg/day oral, day 0 (DSS last day), score 0-3, mean ± SD", "value": "1.0 ± 0.0"},
      {"measurement": "Body weight", "setting": "DSS + 100 mg/kg/day oral, day 3, mean ± SD", "value": "15.2 ± 1.8", "unit": "g"},
      {"measurement": "Fecal scoring average value", "setting": "DSS + 100 mg/kg/day oral, day 3, score 0-3, mean ± SD", "value": "1.7 ± 0.8"},
      {"measurement": "Body weight", "setting": "DSS + 100 mg/kg/day oral, day 5, mean ± SD", "value": "16.7 ± 2.2", "unit": "g"},
      {"measurement": "Fecal scoring average value", "setting": "DSS + 100 mg/kg/day oral, day 5, score 0-3, mean ± SD", "value": "1.0 ± 0.0"},
      {"measurement": "Body weight", "setting": "DSS + 100 mg/kg/day oral, day 8, mean ± SD", "value": "19.8 ± 0.9", "unit": "g"},
      {"measurement": "Fecal scoring average value", "setting": "DSS + 100 mg/kg/day oral, day 8, score 0-3, mean ± SD", "value": "0.0 ± 0.0"},
      {"measurement": "Colon wet weight", "setting": "DSS + 100 mg/kg/day oral, day 10", "value": 238.6},
      {"measurement": "Body weight", "setting": "[3]", "value": "21.0 ± 0.7", "unit": "g"},
      {"measurement": "Colon wet weight", "setting": "[3]", "value": "238.6 ± 11.3"},
      {"measurement": "Colon length", "setting": "DSS + 100 mg/kg/day oral, day 10, mean ± SD, 100 mg/kg/day", "value": "6.80 cm and 6.80 ± 0.12 cm"},
      {"measurement": "Fecal scoring average value", "setting": "DSS + 100 mg/kg/day oral, day 10, score 0-3, mean ± SD", "value": "0.0 ± 0.0"},
      {"measurement": "Body weight", "setting": "DSS + 100 mg/kg/day oral, day −5 (DSS start, before test substance), mean ± SD", "value": "20.1 ± 0.9", "unit": "g"},
      {"measurement": "Fecal scoring average value", "setting": "DSS + 100 mg/kg/day oral, day −5 (before test substance), score 0-3, mean ± SD", "value": "0.0 ± 0.0"},
      {"measurement": "Colon length compared with DSS group", "setting": "Group Nos. 3 to 5 (1, 10, 100 mg/kg/day) and Group No. 6 (50 mg/kg/day), in words", "value": "longer length of the colon than DSS group"},
      {"measurement": "Colon wet weight compared with DSS group", "setting": "all treated groups of Table 5, in words", "value": "suppressed weight increases compared with DSS group"}
    ]}
  ]
}
